Data on 4 compounds can be found in patent US20100216889A1, “PROLONGED EFFECT DISINFECTANT CLEANSER” (THE TRUSTEES OF COLUMBIA UNIVERSITY IN THE CITY OF, priority 2007, published 2010).

The test system of the experiment is S. aureus. Nature of the experiment: Antiseptics and combinations in soap base C, mixed one minute with S. aureus. The conditions noted are these: antiseptics in soap base C; for Colony counts: 0.1 ml of 10^8 cfu/ml S. aureus mixed for one minute; for Log10 reduction from Control: S. aureus, one minute, control = soap base. It counts as cell-based. How it is done: To 0.9 ml of the base, 0.1 ml of 10^8 cfu/ml of S. aureus was added and mixed for one minute, after which 9.0 ml of drug inactivating media was added. The samples were mixed well and serial dilutions were made with drug inactivating media. Various dilutions were plated on TSA plates. As the control, […] of soap base was used.

As for `N=C(NCCCCCCNC(=N)NC(=N)Nc1ccc(Cl)cc1)NC(=N)Nc1ccc(Cl)cc1.O=C(O)[C@H](O)[C@@H](O)[C@H](O)[C@H](O)CO.O=C(O)[C@H](O)[C@@H](O)[C@H](O)[C@H](O)CO` [0.2% CHG, Chlorhexidine gluconate], the Colony counts was 4.1 × 10^6 and the “Log10 reduction from Control” value stood at 0.92.

Regarding `Oc1cc(Cl)ccc1Oc1ccc(Cl)cc1Cl` [0.5% TC, Triclosan], the Colony counts was 4.3 × 10^6 and the “Log10 reduction from Control” value was 0.89.

As to `CC(C)(C)CC(C)(C)c1ccc(OCCOCC[N+](C)(C)Cc2ccccc2)cc1.[Cl-]` [0.18% BZT, Benzathonium chloride], the Colony counts is 3.9 × 10^6 and the “Log10 reduction from Control” value came out at 0.94.

For Polyhexamethylene biguanide [0.3% PHMB], the Colony counts is reported as 2.0 × 10^6 and the “Log10 reduction from Control” value came to 1.17.
